Experimental data as given in patent US20060147397A1, “Composition for preparation for external use on skin and method of using the same” (Kose Corporation, priority 2002, published 2006).

How the values were obtained:
[1] = test system: Murine cultured B16 melanoma cells; experiment: Cell survival rate test based on cell culture (crystal violet); settings: mouse, 5 days, 10 μg/mL
Protocol: (§1) Murine cultured B16 melanoma cells were used. An appropriate quantity of a 10% FBS-containing MEM medium was placed in two 6-well plates, the B16 melanoma cells were seeded therein and allowed to stand at 37° C. under a carbon dioxide concentration of 5 vol %. Next day, a sample preparation solution was added and mixed therewith so as to adjust the final concentrations of the Cistus ladaniferus L. extract obtained in Example 1, and labdenic acids and methyl esters and ethyl esters thereof obtained in Example 2 to 0 (reference), 5 and 10 μg/mL, and of lily extract (product of Maruzen Pharmaceuticals Co., Ltd.), which is a known whitening agent, to 0 and 100 μg/mL. The medium was exchanged on the fifth day of culture, and the sample preparation solution was added again. The medium was removed next day, the cells were collected from one plate after washing them using a phosphate buffer (pH7), and degree of whitening of the cultured B16 melanoma cells was evaluated according to the criteria shown below.
On the other plate, the cells were fixed with formalin, and dyed by adding an 1% crystal violet solution. Cell survival rates for the individual sample concentrations were measured using a monocellator (product of Olympus Corporation).
Murine cultured B16 melanoma cells were used. An appropriate quantity of a 10% FBS-containing MEM medium was placed in two 6-well plates, the B16 melanoma cells were seeded therein and allowed to stand at 37° C. under a carbon dioxide concentration of 5 vol %. […] The medium was removed next day, the cells were collected from one plate after washing them using a phosphate buffer (pH7), and degree of whitening of the cultured B16 melanoma cells was evaluated according to the criteria shown below.

[2] = test system: Murine cultured B16 melanoma cells; experiment: Melanin generation/formation suppression test based on cell culture (degree of whiteness); set-up: key: ++: distinctively stronger whiteness over the reference; +: apparently stronger whiteness over the reference; ±: slightly stronger whiteness over the reference; −: remained unchanged
Protocol: as §1, with “below. […]” for “below.”
• ++: distinctively stronger whiteness over the reference; • +: apparently stronger whiteness over the reference; • ±: slightly stronger whiteness over the reference; and • −: remained unchanged.
as §1, with “Glycyrrhiza glabra” for “lily”

[3] = test system: Human neonatal fibroblast NB1RGB; experiment: Cell activation test based on cell culture (cell proliferation ratio)
Protocol: Human neonatal fibroblast NB1RGB was used. An appropriate quantity of medium was placed in a 24-well plate, the fibroblast NB1RGB was seeded therein and allowed to stand at 37 ° C. under a carbon dioxide concentration of 5 vol %. Next day, a sample preparation solution was added and mixed therewith so as to adjust the final concentrations of the Cistus ladaniferus L. extract obtained in Example 1, and labdenic acids and methyl esters and ethyl esters thereof obtained in Example 2 to 0 (reference), 5 and 10 μg/mL, and of Panax ginseng extract (product of Maruzen Pharmaceuticals Co., Ltd.), which is a known cell activator, to 0 and 100 μg/mL. The medium was exchanged on the fourth day of culture, and the sample preparation solution was added again. The medium was removed next day, the cells were washed using a phosphate buffer and collected, and evaluated in terms of cell proliferation rate based on comparison of the number of fibroblast NB1RGB cells grown in the individual sample preparation solutions with that of the reference. […]
The number of cells grown in each sample preparation solution was compared with the number of cells of the reference, and cell activation effect was evaluated using cell proliferation ratio as an index. The number of cells was counted using a blood cell counter plate.
Human neonatal fibroblast NB1RGB was used. An appropriate quantity of medium was placed in a 24-well plate, the fibroblast NB1RGB was seeded therein and allowed to stand at 37 ° C. under a carbon dioxide concentration of 5 vol %. Next day, a sample preparation solution was added and mixed therewith so as to adjust the final concentrations of the Cistus ladaniferus L. extract obtained in Example 1, and labdenic acids and methyl esters and ethyl esters thereof obtained in Example 2 to 0 (reference), 5 and 10 μg/mL, and of cactus extract, which is a known cell activator, to 0 and 100 μg/mL. The medium was exchanged on the fourth day of culture, and the sample preparation solution was added again. The medium was removed next day, the cells were washed using a phosphate buffer and collected, and evaluated in terms of cell proliferation rate based on comparison of the number of fibroblast NB1RGB cells grown in the individual sample preparation solutions with that of the reference.

[4] = test system: Murine cultured B16 melanoma cells; experiment: Melanin generation/formation suppression test based on cell culture (degree of whiteness); set-up: key: ++: distinctively stronger whiteness over the reference; +: apparently stronger whiteness over the reference; ±: slightly stronger whiteness over the reference; −: remained unchanged; remark: listed apart in the source
[5] = final concentration 5 μg/mL + lily extract 100 μg/mL
[6] = final concentration 10 μg/mL, lily extract 0 μg/mL
[7] = final concentration 5 μg/mL + Panax ginseng extract 100 μg/mL
[8] = final concentration 5 μg/mL, additional concentration of cactus extract 100 μg/mL, vs reference
[9] = final concentration 10 μg/mL, Panax ginseng extract 0 μg/mL
[10] = final concentration 10 μg/mL, cactus extract 0 μg/mL, vs reference
[11] = final concentration 5 μg/mL + Glycyrrhiza glabra extract 100 μg/mL
[12] = final concentration 10 μg/mL, Glycyrrhiza glabra extract 0 μg/mL

| SMILES | Cell survival rate [1] [%] | Degree of whiteness [2, 5] | Degree of whiteness [2, 6] | Cell-activation rate [3, 7] [%] | Cell-activation rate [3, 8] [%] | Cell-activation rate [3, 9] [%] | Cell-activation rate [3, 10] [%] | Degree of whiteness [4, 11] | Degree of whiteness [4, 12] |
| --- | --- | --- | --- | --- | --- | --- | --- | --- | --- |
| CC1=C(CCC(C)CC(=O)O)C2(C)CCCC(C)(C)C2CC1 (stereo not drawn) [Compound 1, labd-8-en-15-oic acid] | 94 | ++ | + | 329 | 310 | 128 | 128 | ++ | + |
| CC1=CCC2C(C)(C)CCCC2(C)C1CCC(C)CC(=O)O (stereo not drawn) [Compound 4, labd-7-en-15-oic acid] | 93 | ++ | + | 322 | 315 | 130 | 130 | ++ | + |
| C=C1CCC2C(C)(C)CCCC2(C)C1CCC(C)CC(=O)O (stereo not drawn) [Compound 7, labd-8(17)-en-15-oic acid] | 98 | ++ | + | 333 | 170 | 135 | 135 | ++ | + |
